# Legend:
# Format in all cases: in vivo, ICR mice
# [1] = test system: CD4+ immune-related cells; experiment: Flow cytometry frequency of CD4+ cells in peripheral blood leukocytes; details: HSV-1 inoculated mice
# Method: (§1) The ear inner conch of a large number of 5-week-old ICR mice bred and reared in SPF (specific pathogen free) conditions was injured by being scratched with an injection needle at a strength sufficient to prevent blood from bleeding out, then the injured site was first inoculated with 20 μL of HSV-1 (herpes simplex virus type 1, F strain) solution (1×10^6 pfu/mL), and the mice were reared for 10 days. Next, the same injured site was secondarily inoculated with the same dose of HSV-1. One time a day for 5 days from the day after the first inoculation had been performed and one time a day for 5 days from the day after the second inoculation had been performed, hydrocortisone was intraperitoneally injected into each mouse at 50 μg/day to 500 μg/day. Thereafter, the faces of the mice were observed, mice having blisters formed around the lips were selected, and these were used as mouse models of herpes (FIG. 1).
# (§2) Each mouse model of herpes was prepared by way of the method of Example 1 except that hydrocortisone was administered at about 50 μg/day, 150 μg/day, or 500 μg/day. Thereafter, peripheral blood was collected from each of the mouse models of herpes, peripheral blood leukocytes was isolated and obtained from the collected blood, and the frequencies of immune-related cells (CD4+, CD8+, and DX5+) contained in the peripheral blood leukocytes were measured and comparatively analyzed via flow cytometry (Tables 1 and 2). In this case, mouse models of herpes prepared without administration of hydrocortisone were used as a control group.
# [2] = test system: CD8+ immune-related cells; experiment: Flow cytometry frequency of CD8+ cells in peripheral blood leukocytes; details: HSV-1 inoculated mice
# Method: as §1, §2
# [3] = test system: DX5+ immune-related cells; experiment: Flow cytometry frequency of DX5+ cells in peripheral blood leukocytes; details: HSV-1 inoculated mice
# Method: as §1, §2
# [4] = test system: herpes simplex virus type 1 (HSV-1); experiment: Prevalence rate of herpes in mice given HSV-1 with hydrocortisone
# Method: as §1
# [5] = hydrocortisone 50 μg/day intraperitoneal
# [6] = hydrocortisone 150 μg/day intraperitoneal
# [7] = hydrocortisone 500 μg/day intraperitoneal
structure (smiles),measurement,setting,value
"C[C@]12CCC(=O)C=C1CC[C@@H]1[C@@H]2[C@@H](O)C[C@@]2(C)[C@H]1CC[C@]2(O)C(=O)CO [Hydrocortisone, hydrocortisone]",expression frequency of CD4+ cells,[1]; [5],15.8 ± 8.8%
same,expression frequency of CD4+ cells,[1]; [6],12.4 ± 7.8%
same,expression frequency of CD4+ cells,[1]; [7],12.3 ± 4.7%
same,expression frequency of CD8+ cells,[2]; [5],6.44 ± 2.6%
same,expression frequency of CD8+ cells,[2]; [6],4.78 ± 1.7%
same,expression frequency of CD8+ cells,[2]; [7],4.2 ± 1.7%
same,expression frequency of DX5+ cells,[3]; [5],4.4 ± 2.4%
same,expression frequency of DX5+ cells,[3]; [6],2.89 ± 1.9%
same,expression frequency of DX5+ cells,[3]; [7],2.5 ± 1.9%
same,Prevalence rate of herpes (symptomatic mice/total mice),[4]; HSV-1 + hydrocortisone at 150 μg/day in combination,14.7% (14/95)
same,prevalence rate of herpes relative to mice administered with HSV-1 singly,[4]; HSV-1 + hydrocortisone at 150 μg/day in combination vs HSV-1 singly,about 2.5 times

# Reference: patent publication US12329137B2, “Method of preparing mouse model of herpes” (AJOU UNIVERSITY INDUSTRY-ACADEMIC COOPERATION FOUNDATION, priority 2019, dated 2025)
